Measured values from article PMC5846726, “Characterization of the Mel1c melatoninergic receptor in platypus (Ornithorhynchus anatinus)” (PLoS ONE, 2018).
Read-outs that look alike come from different tables or passages of the source.

What was measured:
hMT1 = hMT1 (Homo sapiens, UniProt P48039); assay: 2-[125I]-iodomelatonin competition binding, human MT1; set-up: hMT1: unit not given here
Method: (§1) This approach has been described very often by our laboratory and others. […] The results were expressed as Ki, taking into account the concentration of radioligand used in each experiment. […] The reaction was stopped by rapid filtration through GF/B Unifilters, followed by three successive washes with ice-cold buffer. Data were analyzed by using the program PRISM (GraphPad Software Inc., San Diego, CA). For saturation assays, the density of binding sites (Bmax) and the dissociation constant of the radioligand (KD) were calculated according to the Scatchard method. […] A similar protocol was used when the binding was performed on whole cells, as described by Legros et al.. As per Plos One policy, all the raw data–listings from radioactivity counter are attached as raw files (Supplementary Tables A to M in S1 Data).

Platypus Mel1C [1] = molecular target: T1, Platypus Mel1C (Ornithorhynchus anatinus, UniProt A0A2P1K6N2); assay: 2-[125I]-iodomelatonin competition binding, transiently transfected COS7 cells, platypus Mel1c; details: COS7 cells transiently transfected with Mel1c gene; radioligand 2-[125I]-iodomelatonin; two transfections, triplicate
Method: (§2) COS7 cells obtained from the American Type Culture Collection were maintained in DMEM GlutaMAX (Thermo Fisher Scientific, Waltham, USA) supplemented with 10% (v/v) fetal calf serum. Nucleofection of COS7 cells was performed according to the manufacturer's instructions using the Nucleofector machine (Amaxa, Cologne, Germany). Adherent COS7 cells were washed in phosphate-buffered saline (PBS), trypsinized, and gently resuspended in V nucleofection solution to a final concentration of 7 × 10^6 cells/100 μl. Next, 5 μg of pCIneo/Mel1c vector was mixed with 100 μl of the COS7 cell suspension, transferred to a […] electroporation cuvette, and nucleofected using program A024 and an Amaxa Nucleofector apparatus. Just after the nucleofection, 500 μl of media supplemented with 20% (v/v) fetal calf serum was added to the cell suspension and cultured in a humidified 37°C, 5% CO2 incubator for 20 minutes. Fourteen million cells were transferred to a T225 flask containing 50 ml of media supplemented with 20% (v/v) fetal calf serum and cultured in a humidified 37°C, 5% CO2 incubator. Two days after transfection, the cells were harvested in PBS, pelleted, and stored at -80°C until use.
as §1
(§3) To obtain stable expression of the receptor for future studies, a preliminary step involving transient expression of the receptor was performed. The Mel1c receptors from the three species were expressed in transiently transfected COS7 cells. A limited number of compounds were tested in order to gain a preliminary perception of the characteristics of Mel1c from these species.

Xenopus Mel1C = molecular target: T2, Xenopus Mel1C (Xenopus laevis, UniProt P49219); assay: 2-[125I]-iodomelatonin competition binding, membranes from stably transfected CHO cells, Xenopus Mel1c; details: radioligand 2-[125I]-iodomelatonin
T2 construct: expressed in transfected cells
T2 sequence (P49219 1-420): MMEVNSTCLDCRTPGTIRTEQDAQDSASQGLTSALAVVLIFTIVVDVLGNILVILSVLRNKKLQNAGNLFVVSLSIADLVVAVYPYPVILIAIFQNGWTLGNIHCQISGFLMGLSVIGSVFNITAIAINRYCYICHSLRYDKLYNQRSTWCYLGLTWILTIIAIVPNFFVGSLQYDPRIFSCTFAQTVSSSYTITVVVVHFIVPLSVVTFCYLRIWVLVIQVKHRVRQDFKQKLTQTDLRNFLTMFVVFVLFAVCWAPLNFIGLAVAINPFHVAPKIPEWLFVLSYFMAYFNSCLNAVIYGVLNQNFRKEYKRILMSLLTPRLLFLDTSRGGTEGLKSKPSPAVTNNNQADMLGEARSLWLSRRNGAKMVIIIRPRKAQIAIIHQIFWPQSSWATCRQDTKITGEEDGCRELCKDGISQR
Method: (§4) CHO-Flp-In cells (Thermo Fisher Scientific, Waltham, USA) were cultivated in the presence of zeocin (0.1 mg/ml). The cells were cotransfected with either platypus (cloned sequence that will be submitted to GenBank) Mel1c/pcDNA5-FRT (platypus Mel1c) or X. laevis (NM 001087919.1) Mel1c/pcDNA5-FRT (clawed frog Mel1c) and Flp recombinase expression pOG44 plasmid using PEIpro (Invitrogen, Carlsbad, CA). CHO cells stably expressing platypus Mel1c or clawed frog Mel1c were selected using hygromycin (0.6 mg/ml). CHO-Flp-In-platypus Mel1c cells were grown in HAM F12 with 2 mM glutamine and supplemented with 10% fetal calf serum. Cells were selected using antibiotic pressure (hygromycin) for 72 h. […] After confirmation of the presence of the transgene, the cells were amplified up to 2 x 10^9 cells. This material was used to prepare the cell membranes used in further pharmacological experiments.
(§5) This standard procedure was described in a previous experiment with CHO cells expressing the sheep MT2 receptor [23]. […] The resulting pellet was suspended in 5 mM Tris/HCl (pH 7.4) containing 2 mM EDTA and homogenized using a Kinematica polytron. The homogenate was then centrifuged (20,000g, 30 min, 4°C) and the resulting pellet suspended in 75 mM Tris/HCl (pH 7.4) containing 2 mM EDTA and 12.5 mM MgCl2. The protein content was determined according to the method of Lowry et al. using the Bio-Rad kit (Bio-Rad SA, Ivry-sur-Seine, France). Aliquots of membrane preparations were stored in binding buffer (50 mM Tris/HCl, pH 7.4 containing 5 mM MgCl2 and 1 mM EDTA) at –80°C until use.
as §1

hMT2 = molecular target: T3, hMT2 (Homo sapiens, UniProt P49286); assay: 2-[125I]-iodomelatonin competition binding, human MT2
T3 sequence (P49286 1-362): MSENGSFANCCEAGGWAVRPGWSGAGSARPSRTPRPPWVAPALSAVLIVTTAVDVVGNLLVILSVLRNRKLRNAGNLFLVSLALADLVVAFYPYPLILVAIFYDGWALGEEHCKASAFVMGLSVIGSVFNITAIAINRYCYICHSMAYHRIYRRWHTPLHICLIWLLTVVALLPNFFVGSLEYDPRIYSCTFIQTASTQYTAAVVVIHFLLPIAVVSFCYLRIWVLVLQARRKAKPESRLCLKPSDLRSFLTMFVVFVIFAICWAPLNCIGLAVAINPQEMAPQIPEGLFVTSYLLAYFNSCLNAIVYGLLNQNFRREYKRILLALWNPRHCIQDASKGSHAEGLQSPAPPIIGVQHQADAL
Method: as §1

X. laevis Mel1c receptor = molecular target: T4, X. laevis Mel1c receptor (Xenopus laevis, UniProt P49219); assay: 2-[125I]-iodomelatonin competition binding, transiently transfected COS7 cells, Xenopus Mel1c; details: COS7 cells transiently transfected with Mel1c gene, radioligand 2-[125I]-iodomelatonin, two transfections, triplicate
T4 construct: expressed in transfected cells; host or cells: COS7 (transient nucleofection, pCIneo vector)
T4 sequence (P49219 1-354 isoform P49219-2): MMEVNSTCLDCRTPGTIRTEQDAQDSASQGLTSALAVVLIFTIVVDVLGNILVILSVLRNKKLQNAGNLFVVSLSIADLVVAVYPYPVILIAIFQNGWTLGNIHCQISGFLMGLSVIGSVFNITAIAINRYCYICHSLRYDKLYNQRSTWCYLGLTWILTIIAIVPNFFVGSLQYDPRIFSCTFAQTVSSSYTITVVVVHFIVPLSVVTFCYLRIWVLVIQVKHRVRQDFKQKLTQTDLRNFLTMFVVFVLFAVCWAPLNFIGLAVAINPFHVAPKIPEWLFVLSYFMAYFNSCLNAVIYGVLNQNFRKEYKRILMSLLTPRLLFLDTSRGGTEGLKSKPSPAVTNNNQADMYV
Method: as §2, §1, §3

Platypus Mel1C [2] = molecular target: T1, Platypus Mel1C; assay: 2-[125I]-iodomelatonin competition binding, membranes from stably transfected CHO cells, platypus Mel1c; details: membranes from stably transfected CHO cells, radioligand 2-[125I]-iodomelatonin; for Ki: read-out: Platypus Mel1C (converted)
Method: as §4, §5, §1

G. gallus Mel1c receptor = molecular target: T5, G. gallus Mel1c receptor (Gallus gallus, UniProt P49288); assay: 2-[125I]-iodomelatonin competition binding, transiently transfected COS7 cells, chicken Mel1c; details: for pKi Gallus gallus: COS7 cells transiently transfected with Mel1c gene, radioligand 2-[125I]-iodomelatonin, two transfections, triplicate
T5 construct: expressed in transfected cells; host or cells: COS7 (transient nucleofection, pCIneo vector)
T5 sequence (P49288 1-346): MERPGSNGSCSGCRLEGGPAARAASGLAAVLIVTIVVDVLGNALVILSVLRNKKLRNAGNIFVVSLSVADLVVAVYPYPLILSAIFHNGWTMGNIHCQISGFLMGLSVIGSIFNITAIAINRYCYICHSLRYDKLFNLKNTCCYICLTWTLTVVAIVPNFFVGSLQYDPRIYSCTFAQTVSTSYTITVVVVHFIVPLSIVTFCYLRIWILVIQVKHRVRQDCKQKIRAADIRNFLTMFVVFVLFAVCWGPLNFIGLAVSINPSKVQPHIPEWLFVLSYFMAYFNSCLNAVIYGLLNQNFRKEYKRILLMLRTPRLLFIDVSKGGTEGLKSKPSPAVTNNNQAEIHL
Method: as §2, §1, §3

[3] = membranes from stably transfected CHO cells, radioligand 2-[125I]-iodomelatonin
[4] = membranes from stably transfected CHO cells, radioligand 2-[125I]-iodomelatonin, read-out: hMT2 (converted)
[5] = membranes from stably transfected CHO cells, radioligand 2-[125I]-iodomelatonin, read-out: hMT1 (converted)

Sequence of hMT1 (P48039 whole entry): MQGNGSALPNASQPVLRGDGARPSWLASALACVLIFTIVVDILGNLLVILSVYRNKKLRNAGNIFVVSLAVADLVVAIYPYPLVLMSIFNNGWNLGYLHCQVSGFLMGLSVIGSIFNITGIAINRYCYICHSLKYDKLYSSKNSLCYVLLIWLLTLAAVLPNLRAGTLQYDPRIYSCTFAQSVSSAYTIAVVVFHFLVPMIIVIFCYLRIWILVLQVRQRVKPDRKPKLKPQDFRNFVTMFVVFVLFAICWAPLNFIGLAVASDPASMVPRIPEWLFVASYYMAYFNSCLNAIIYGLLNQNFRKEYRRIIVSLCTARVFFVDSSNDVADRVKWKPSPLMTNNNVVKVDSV
T1 sequence (A0A2P1K6N2 1-349): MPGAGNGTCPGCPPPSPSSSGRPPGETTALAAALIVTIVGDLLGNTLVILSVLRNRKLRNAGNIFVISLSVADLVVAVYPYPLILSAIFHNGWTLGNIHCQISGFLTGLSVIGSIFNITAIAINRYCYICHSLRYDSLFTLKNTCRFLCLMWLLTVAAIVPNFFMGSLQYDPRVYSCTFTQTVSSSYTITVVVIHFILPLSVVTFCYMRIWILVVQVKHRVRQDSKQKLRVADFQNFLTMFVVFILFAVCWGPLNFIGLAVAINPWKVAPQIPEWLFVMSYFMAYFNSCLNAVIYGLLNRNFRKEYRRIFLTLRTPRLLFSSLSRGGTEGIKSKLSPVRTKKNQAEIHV

Compound	hMT1 (hMT1; [3])	pKi Ornithorhyncus anatinus (Platypus Mel1C [1])	Ki (Xenopus Mel1C)	Ki (hMT2; [4])	Ki (Platypus Mel1C [2])	Ki (hMT1; [5])	further results
CC(=O)NCCc1c(Cc2ccccc2)[nH]c2ccccc12 [Luzindole, N-acetyl-2-benzyltryptamine]	6.6	5.9	2510 nM	25.1 nM	2510 nM		Ki (X. laevis Mel1c receptor; read-out: pKi Xenopus laevis (converted)): 2000 nM; Ki (G. gallus Mel1c receptor): 3.98 µM
O=C(NCCc1cccc2ccccc12)C1CCC1 [S20928, (N-[2-(1-naphthyl)ethyl]cyclobutanecarboxamide)]			1260 nM	79.4 nM	794 nM	79.4 nM	
COc1ccc2ncn(CCNC(C)=O)c2c1 [S21278, N-[2-(6-methoxybenzimidazol-1-yl)ethyl]acetamide]			1580 nM	631 nM	2000 nM	631 nM	
COc1cc2c(CCNC(C)=O)c(I)[nH]c2cc1[N+](=O)[O-] [S27128, N-[2-(2-iodo-5-methoxy-6-nitro-1H-indol-3-yl)ethyl]acetamide]			2.51 nM		1 nM	1.26 nM	
COc1ccc2[nH]c(-c3cccc4ccccc34)c(CCNC(=O)CI)c2n1 [S70254]	7.0	6.6					pKi (Xenopus Mel1C): 6.3; hMT2 (hMT2; [3]): 9.0; pKi Xenopus laevis (X. laevis Mel1c receptor): 6.8; pKi Gallus gallus (G. gallus Mel1c receptor): 6.6
COCC(CNC(C)=O)c1cccc2ccc(OC)cc12 (stereo not shown) [S73893, N-[3-methoxy-2-(7-methoxy-1-naphthyl)propyl]acetamide]			39.8 nM	7.94 nM	20 nM	3.98 nM	
COc1ccc2cccc(C(CO)CNC(=O)CF)c2c1 (stereo not shown) [S75436, 2-fluoro-N-[3-hydroxy-2-(7-methoxy-1-naphthyl)propyl]acetamide]			15.8 nM		6.31 nM		Ki (hMT1): 12.6 nM; Ki (hMT2): 1.26 nM
COc1ccc2[nH]cc(CCNC(=O)CI)c2c1 [SD6, N-[2-(5-methoxy-1H-indol-3-yl)ethyl]iodoacetamide]			0.501 nM		0.398 nM		
(S)-N-(2-(1,6,7,8-tetrahydro-2H-indeno-(5,4)furan-8-yl)ethyl)propionamide [Ramelteon ®]	10.1	10.1					Xenopus Mel1C (Xenopus Mel1C): 9.9; pKi Xenopus laevis (X. laevis Mel1c receptor): 10.1; Platypus Mel1C (Platypus Mel1C [2]): 9.9; pKi Gallus gallus (G. gallus Mel1c receptor): 9.8
